Measured values published in patent US11291666B2, “Uses” (INTRA-CELLULAR THERAPIES, INC., priority 2016, dated 2022).
Entries after “also recorded” stand apart in the source; their conditions may differ.

Assays:
[1] = tested on: BV2 cells; experiment: LPS-induced TNFα release from BV2 cells (ELISA); type: cell-based, mouse; conditions: 50 ng/ml LPS stimulation, FIG. 5
Protocol: TNFα release: TNFα levels are measured in BV2 conditioned media and normalized to cell protein levels. Inhibition of LPS-induced TNFα release from BV2 cells is depicted in FIG. 5.
The test compound is added first, the LPS is added one hour later, and the cells and/or media are harvested at five hours from commencement of the experiment.
TNFαELISA: Thermo Fisher mouse TNFα colorimetric, sandwich ELISA kit. Interpolatee values from standard curve. Dose response is fit to a 4-parameter logistic curve.

[2] = tested on: BV2 cells; experiment: Quantitative PCR of inflammatory cytokine mRNA in LPS-treated BV2 cells; type: cell-based, mouse; conditions: LPS 10 microgram/ml, Compound 214 10 microgram/ml, FIG. 2
[3] = tested on: inflammatory gene expression in mouse striatum; experiment: Inflammatory gene expression in mouse striatum after LPS (Q-PCR); type: in vivo
Protocol: RTqPCR: RNA from BV2 cells purified using RNeasyKit (Qiagen) and from mouse tissue using TRIzol (Ambion). TaqMan primer-probe assays from Thermo Fisher. mRNA levels for all conditions are normalized to GAPDH and to vehicle control (ΔΔCt). Data are analyzed statistically using one-way ANOVA with the Bonferroni post-test for multiple comparisons.
The results are based upon an evaluation of samples using Q-PCR.
Data from a further experiment measuring the effect of PDE1 inhibition on inflammatory gene expression in mouse striatum is depicted in FIG. 7. […] Striatal tissue is isolated and flash frozen, and RNA is extracted. Measurements from RT-qPCR are shown as log 2 fold change (2ΔΔCt). n=4 *p<0.05, **p<0.01, ***p<0.001, ****p<0.0001.
Data from yet another experiment measuring the effect of PDE1 inhibition on inflammatory gene expression in mouse striatum is depicted in FIG. 8. […] Striatal tissue is analyzed for mRNA levels of TNF, IL1β, Ccl2, and IL6. Expression levels are shown as change in Q-PCR signal from vehicle (ΔΔCt) and compared using an ANOVA. * p<0.05, **p<0.01, ***p<0.001.

[4] = Striatum Mouse + LPS, initial results
[5] = adult mice, 10 mg/kg i.p., 500 μg/kg LPS s.c. for 2 hours, FIG. 8
[6] = mouse striatum, 10 mg/kg i.p., LPS 500 μg/kg s.c., two hours, FIG. 7

In the case of `CN1C(=O)c2c(nn(Cc3ccc(-c4cccc(F)n4)cc3)c2Nc2ccccc2)N2C1=N[C@@H]1CCC[C@@H]12` [Compound 214], the “LPS-induced TNFα release” value [1] is reported as “dose-dependent inhibition”, the “LPS-induced increase in expression of IL1β (mRNA, quantitative PCR)” value [2] is reported as “suppresses; also recorded: significantly blunts” and the “Chemokine (C-C) motif Ligand 2 expression (Q-PCR)” value [3, 4] is reported as “Down”. The “Oncostatin M expression (Q-PCR)” value [3, 4] was “Down”, the “expression of Ccl2 mRNA in striatum” value [3, 5] was “attenuates” and the “expression of TNF mRNA in striatum” value [3, 5] was “attenuates”. For the same compound, the “levels of IL1-beta mRNA in striatum” value [3, 5] was “trended to lower levels”, the “levels of IL6 mRNA in striatum” value [3, 5] was “trended to lower levels” and the “LPS stimulation of the pro-inflammatory cytokines TNFα, Ccl2, IL-1β, and IL-6” value [3, 6] was “inhibits”. The “expression of the anti-inflammatory cytokine IL-10” value [3, 6] was “significantly enhance” and the “LPS-induced inflammatory gene expression changes in mice” value ([3]; striatal tissue, 10 mg/kg i.p., 2 hours, FIG. 8) was “prevents”.
